Measured values taken from publication PMC11923649, “Novel C-2 Aromatic Heterocycle-Substituted Triterpenoids Inhibit Hedgehog Signaling in GLI1 Overexpression Cancer Cells” (ACS Omega, 2025).

Tests used:
[1] = test system: U2OS; assay: MTS cytotoxicity assay, 72 h, U2OS; assay type: cell-based; settings: Homo sapiens
[2] = test system: K562 (chronic myelogenous leukemia); assay: MTS cytotoxicity assay, 72 h, K562; assay type: cell-based; settings: Homo sapiens, Table 1
Procedure, shortened: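 Cells were exposed to compounds for 72 h at 50–0.0975 μmol/L (2-fold dilutions), then MTS/phenazine methosulfate was added for 1–4 h. Absorbance read at 490 nm; IC50 derived from concentration-response.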

[3] = test system: CEM-DNR; assay: MTS cytotoxicity assay, 72 h, CEM-DNR; assay type: cell-based; settings: Homo sapiens
[4] = test system: U-87 MG-Gli-FLuc cells; assay: MTS viability assay run in parallel with U-87 MG-Gli-FLuc reporter assay; assay type: cell-based, human; settings: up to a dose of 6.25 μmol/L, 24 h
Method: A possible direct inhibition of the reporter (Fluc) and luminescence itself, which could lead to false positive results, was also ruled out in a cellular as well as a noncellular model (data not shown).
Figure 1 Effect of compounds 11a, 11b, and positive control GANT-61 on Gli1 activation and cell viability measured using the U-87 MG-Gli-FLuc reporter assay. Data are expressed as percentages of control (100%) and represent the mean of three independent experiments with the standard deviation. To distinguish specific inhibition of Gli activation from a nonspecific cellular response, an MTS assay was performed simultaneously under the same conditions in 96-well transparent plates. Statistical analysis of Gli1 activity was performed using one-sample Student’s t-test (mu = 100): *, p < 0.05; **, p < 0.01. The same analysis was used to assess cytotoxicity by MTS assay: #, p < 0.05; ##, p < 0.01.
The U-87 MG-Gli-FLuc reporter cell line was developed from the human glioblastoma line U-87 MG obtained from ATCC and cultured in EMEM medium supplemented with 10% FBS, 1 mmol/L sodium pyruvate, and a 1 mmol/L nonessential amino acid mixture. […] Panels were placed on a shaker to achieve complete cell lysis, and luminescence was measured after 3 min using an EnVision plate reader.

SMILES | IC50 ([1]; Table 1) [µM] | IC50 ([1]; full Table S1) [µM] | IC50 [2] [µM] | IC50 ([3]; Table 1) [µM] | IC50 ([3]; full Table S1) [µM] | Inhibition of proliferation or cell death induction (MTS) under reporter conditions [4]
C=C(C)[C@@H]1CC[C@]2(C(=O)O)CC[C@]3(C)C(CCC4[C@@]5(C)C=C(c6ccco6)C(=O)C(C)(C)C5CC[C@]43C)C12 (stereo partly drawn) [Compound 11a, 2-(Furan-2-yl)-3-oxolupa-1,20(29)-dien-28-oic acid] | 21 | 20.9 | 6.3 | 15 | 15.3 | not accompanied by inhibition of proliferation or cell death induction
C=C(C)[C@@H]1CC[C@]2(C(=O)O)CC[C@]3(C)C(CCC4[C@@]5(C)C=C(c6ccoc6)C(=O)C(C)(C)C5CC[C@]43C)C12 (stereo partly drawn) [Compound 11b, 2-(Furan-3-yl)-3-oxolupa-1,20(29)-dien-28-oic acid] | 26 | 26.3 | 9.6 | 22 | 21.8 | not accompanied by inhibition of proliferation or cell death induction
